From PMC9202514 (FASEB journal : official publication of the Federation of …, 2022)

How the values were obtained:
GmITPK2 = biological target: T1, GmITPK2 (Glycine max, UniProt A7X665); assay: Ins; assay type: biochemical; settings: 1 mM ADP, pH 7.2, 25 °C
T1 sequence (A7X665 1-315): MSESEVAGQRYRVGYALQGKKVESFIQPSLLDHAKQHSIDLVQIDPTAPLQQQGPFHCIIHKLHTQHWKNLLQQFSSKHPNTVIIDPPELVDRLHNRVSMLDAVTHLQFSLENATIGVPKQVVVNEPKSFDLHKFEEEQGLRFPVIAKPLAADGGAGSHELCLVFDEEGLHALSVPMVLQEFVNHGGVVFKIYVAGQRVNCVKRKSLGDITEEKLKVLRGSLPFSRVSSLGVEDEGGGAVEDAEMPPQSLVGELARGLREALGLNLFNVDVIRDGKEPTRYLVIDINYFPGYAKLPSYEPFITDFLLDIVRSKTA

GmITPK1 = biological target: T2, GmITPK1 (Glycine max, UniProt A7X657); assay: InsP6 kinase activity assay; assay type: biochemical; settings: 1 mM ATP, pH 7.2, 25 °C
T2 sequence (A7X657 1-339): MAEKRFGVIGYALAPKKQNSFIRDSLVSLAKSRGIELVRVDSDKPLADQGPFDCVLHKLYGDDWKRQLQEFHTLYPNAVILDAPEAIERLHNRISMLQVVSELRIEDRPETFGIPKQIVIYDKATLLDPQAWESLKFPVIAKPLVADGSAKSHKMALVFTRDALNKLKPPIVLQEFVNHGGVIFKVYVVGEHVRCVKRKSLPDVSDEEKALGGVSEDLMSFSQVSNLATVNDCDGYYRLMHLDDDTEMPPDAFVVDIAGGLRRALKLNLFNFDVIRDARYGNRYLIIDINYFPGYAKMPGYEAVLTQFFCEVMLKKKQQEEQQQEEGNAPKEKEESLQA

SMILES	Ins(1,3,4,5,6)P5 phosphatase activity assay (GmITPK2)	InsP6 kinase activity assay (GmITPK1)
O=P(O)(O)O[C@@H]1[C@@H](OP(=O)(O)O)[C@H](OP(=O)(O)O)[C@H](O)[C@H](OP(=O)(O)O)[C@H]1OP(=O)(O)O [Ins(1,3,4,5,6)P5]	GmITPK2 exhibited the higher activity	
O=P(O)(O)O[C@H]1[C@H](OP(=O)(O)O)[C@@H](OP(=O)(O)O)[C@H](OP(=O)(O)O)[C@@H](OP(=O)(O)O)[C@H]1OP(=O)(O)O [InsP6]		recombinant His6MBP-GmITPK1 is an active InsP6 kinase
